From patent US7868204B2, “Inhibitors of histone deacetylase” (MethylGene Inc., priority 2001, dated 2011)
Where two headings read alike, the source gives them in different places.

Tests used:
[1] = target: T1, cloned recombinant human HDAC-1 (Homo sapiens, UniProt Q13547); experiment: Human HDAC-1 enzyme inhibition, Assay 1 ([3H]-acetylated histone substrate, scintillation counting); assay type: biochemical
T1 construct: made in house; host or cells: Baculovirus insect cell expression system
Outline: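 Activity read as [3H]-acetic acid liberated from labeled substrate, ethyl acetate-extracted and scintillation-counted. Compounds preincubated 30 min at 4° C. with baculovirus-expressed, purified human HDAC-1. Dose-response curves give IC50 as concentration producing fifty percent of maximal inhibition.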

HCT116 cells = experiment: MTT assay; assay type: cell-based; details: Homo sapiens, HCT116 cells, 72 hours
Outline: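 Read-out: MTT (0.5 mg/ml final, 4 h) after solubilization in 50% DMF/20% SDS, pH 4.7, with OD translated into cell number via the line's growth curve. Compound treatment lasted 72 h at 37 °C in 5% CO2, starting a day after plating.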

[2] = tested on: acetylated histone H-4 in T24 human bladder cancer cells; experiment: Histone H4 acetylation in whole cells by immunoblots; assay type: cell-based; details: 16 h
Experimental: T24 human bladder cancer cells growing in culture were incubated with HDAC inhibitors for 16 h. […] of total histone protein was loaded onto SDS/PAGE and transferred to nitrocellulose membranes. Membranes were probed with polyclonal antibodies specific for acetylated histone H-4 (Upstate Biotech Inc.), followed by horse radish peroxidase conjugated secondary antibodies (Sigma). Enhanced Chemiluminescence (ECL) (Amersham) detection was performed using Kodak films (Eastman Kodak). Acetylated H-4 signal was quantified by densitometry.

[3] = Table 5F, read-out: Human HDAC-1 IC50
[4] = T-24, Table 5F, read-out: H4 Ac (T24) EC50
[5] = Table 5a, read-out: Human HDAC-1 IC50
[6] = T-24, Table 5a, read-out: H4Ac (T24) EC50
[7] = T-24, Table 5c, read-out: H4Ac (T24) EC50
[8] = Table 5d, read-out: HDAC-1 IC50
[9] = T-24, Table 5d, read-out: H4Ac(T24) EC50
[10] = Table 5b, read-out: Human HDAC-1 IC50
[11] = T-24, Table 5b, read-out: H4Ac (T24) EC50

T1 sequence (Q13547 whole entry): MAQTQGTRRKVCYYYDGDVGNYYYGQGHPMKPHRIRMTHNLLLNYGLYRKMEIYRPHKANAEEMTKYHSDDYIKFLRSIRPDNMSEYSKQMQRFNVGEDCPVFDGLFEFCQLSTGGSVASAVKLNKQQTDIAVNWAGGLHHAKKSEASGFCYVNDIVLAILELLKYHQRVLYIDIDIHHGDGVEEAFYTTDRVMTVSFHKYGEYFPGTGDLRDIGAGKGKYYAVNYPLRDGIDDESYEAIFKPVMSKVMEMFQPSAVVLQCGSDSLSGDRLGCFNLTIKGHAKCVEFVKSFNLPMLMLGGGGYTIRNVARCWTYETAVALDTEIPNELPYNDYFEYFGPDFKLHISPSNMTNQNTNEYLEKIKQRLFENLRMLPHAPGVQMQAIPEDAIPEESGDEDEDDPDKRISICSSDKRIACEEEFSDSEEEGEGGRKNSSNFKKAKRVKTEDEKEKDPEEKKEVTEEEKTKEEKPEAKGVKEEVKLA

IC50 [1, 3] [µM] | IC50 (HCT116 cells; HCT-116, 72 h, Table 5F) [nM] | EC50 [2, 4] [nM] | also measured | Structure (SMILES)
3 | 1000 | 3000 |  | Nc1ccccc1NC(=O)c1ccc(CNc2ccc(F)cc2)cc1 [Cpd 415, N-(2-Amino-phenyl)-4-[(4-fluoro-phenylamino)-methyl]-benzamide]
5 | 700 | 1000 |  | COc1cccc(NCc2ccc(C(=O)Nc3ccccc3N)cc2)c1 [Cpd 430, N-(2-Amino-phenyl)-4-[(3-methoxy-phenylamino)-methyl]-benzamide]
3 | 1000 | 1000 |  | CC(=O)c1cc2c(cc1NCc1ccc(C(=O)Nc3ccccc3N)cc1)OCO2 [Cpd 386, 4-[(6-Acetyl-benzo[1,3]dioxol-5-ylamino)-methyl]-N-(2-amino-phenyl)-benzamide]
 |  |  | IC50 [1, 5]: 0.8 µM; IC50 (HCT116 cells; HCT-116, 72 h, Table 5a): 600 nM; EC50 [2, 6]: 3000 nM | C=CCNc1nc(NCc2ccc(C(=O)Nc3ccccc3N)cc2)nc(NC2Cc3ccccc3C2)n1 [Cpd 18]
5 | 200 | 1000 |  | Cc1c(Cc2ccc(C(=O)Nc3ccccc3N)cc2)sc(NC(=O)c2ccccc2)c1C#N [Cpd 360, 4-(5-Benzoylamino-4-cyano-3-methyl-thiophen-2-ylmethyl)-N-(2-amino-phenyl)-benzamide]
3 | 1000 | 2000 |  | COc1cc(NCc2ccc(C(=O)Nc3ccccc3N)cc2)ncn1 [Cpd 385]
1.4 | 300 | 1000 |  | Cn1c(=O)c2cc(NCc3ccc(C(=O)Nc4ccccc4N)cc3)ccc2n(C)c1=O [Cpd 461, N-(2-Amino-phenyl)-4-[(1,3-dimethyl-2,4-dioxo-1,2,3,4-tetrahydro-quinazolin-6-ylamino)-methyl]-benzamide]
3 | 1000 | 3000 |  | Cc1cc(C)nc(NCc2ccc(C(=O)Nc3ccccc3N)cc2)n1 [Cpd 382, N-(2-Amino-phenyl)-4-[(4,6-dimethyl-pyrimidin-2-ylamino)-methyl]-benzamide]
4 | 1000 | 3000 |  | Nc1ccccc1NC(=O)c1ccc(Cn2c(=O)c3ccccc3n(CCN3CCOCC3)c2=O)cc1 [Cpd 341]
17 | 400 | 1000 |  | COc1ccc(Nc2ccnc(NCc3ccc(C(=O)Nc4ccccc4N)cc3)n2)cc1OC [Cpd 442, N-(2-Amino-phenyl)-4-{[4-(3,4-dimethoxy-phenylamino)-pyrimidin-2-ylamino]-methyl}-benzamide]
 |  |  | IC50 ([1]; Table 5c, read-out: Human HDAC-1 IC50): 4 µM; IC50 (HCT116 cells; HCT-116, 72 h, Table 5c): 3000 nM; EC50 [2, 7]: 5000 nM | Nc1ccccc1NC(=O)/C=C/c1ccc(NCc2cc(F)cc(F)c2)nc1 [Cpd 100, N-(2-aminophenyl)-3-[6-(3,5-difluoro-benzylamino)-pyridin-3-yl]-acrylamide]
 |  |  | IC50 [1, 8]: 4 µM; IC50 (HCT116 cells; HCT-116, Table 5d): 9000 nM; EC50 [2, 9]: 10000 nM | COc1cc(OC)nc(NCc2ccc(/C=C/C(=O)Nc3ccccc3N)cc2)n1 [Cpd 492, N-(2-Amino-phenyl)-3-{4-[(4,6-dimethoxy-pyrimidin-2-ylamino)-methyl]-phenyl}-acrylamide]
0.4 | 400 | 1000 |  | Nc1ccccc1NC(=O)c1ccc(Cn2cnc3ccsc3c2=O)cc1 [Cpd 257]
4 | 300 | < 1000 |  | CNc1nc2ccc(NCc3ccc(C(=O)Nc4ccccc4N)cc3)cc2n1C [Cpd 580]
3 | 200 | 2000 |  | CN(C)c1nc2cc(NCc3ccc(C(=O)Nc4ccccc4N)cc3)ccc2s1 [Cpd 448, N-(2-Amino-phenyl)-4-[(2-dimethylamino-benzothiazol-5-ylamino)-methyl]-benzamide]
7 | 400 | 1000 |  | COc1cc(N2CC(c3ccc(C(=O)Nc4ccccc4N)cc3)OC2=O)cc(OC)c1OC (stereo not drawn) [compound 297, N-(2-Amino-phenyl)-4-[2-oxo-3-(3,4,5-trimethoxy-phenyl)-oxazolidin-5-yl]-benzamide]
8 | 200 | 1000 |  | Nc1ccccc1NC(=O)c1ccc(NCc2nc3ccccc3[nH]2)cc1 [Cpd 334]
 |  |  | IC50 [1, 10]: 3 µM; IC50 (HCT116 cells; HCT-116, 72 h, Table 5b): 1000 nM; EC50 [2, 11]: 1000 nM | COc1nc(NCc2ccc(C(=O)Nc3ccccc3N)cc2)nc(OC)n1 [Cpd 212]

IC50 [1, 3] [µM] | IC50 (HCT116 cells; HCT-116, 72 h, Table 5F) [nM] | EC50 [2, 4] [nM] | also measured | Structure (SMILES)
 |  |  | IC50 [1, 8]: 1 µM; IC50 (HCT116 cells; HCT-116, Table 5d): 400 nM; EC50 [2, 9]: 15000 nM | CSc1ccc(NCc2ccc(/C=C/C(=O)Nc3ccccc3N)cc2)cc1 [Cpd 556, N-(2-Amino-phenyl)-3-{4-[(4-methylsulfanyl-phenylamino)-methyl]-phenyl}acrylamide]
 |  |  | IC50 [1, 5]: 2 µM; IC50 (HCT116 cells; HCT-116, 72 h, Table 5a): 700 nM; EC50 [2, 6]: 1000 nM | COc1ccccc1CCNc1nc(N)nc(NCc2ccc(C(=O)Nc3ccccc3N)cc2)n1 [Cpd 23, 4-({4-Amino-6-[2-(2-methoxy-phenyl)-ethylamino]-[1,3,5]triazin-2-ylamino}-methyl)-N-(2-amino-phenyl)-benzamide]
0.5 | 600 | 1000 |  | CC(=O)Nc1sc(Cc2ccc(C(=O)Nc3ccccc3N)cc2)c(C)c1C#N [compound 281, N-(2-Amino-phenyl)-4-(5-acetylamino-4-cyano-3-methyl-thiophen-2-ylmethyl)-benzamide]
2 | 100 | 1000 |  | CCCCn1cnc2c(NCc3ccc(C(=O)Nc4ccccc4N)cc3)nc(Cl)nc21 [Cpd 333, N-(2-Amino-phenyl)-4-[(9-butyl-2-chloro-9H-purin-6-ylamino)-methyl]-benzamide]
13 | 700 | 3000 |  | COc1cc(NCc2ccc(C(=O)Nc3cscc3N)cc2)cc(OC)c1OC [Cpd 574, N-(4-Amino-thiophen-3-yl)-4-[(3,4,5-trimethoxy-phenylamino)-methyl]-benzamide]
2 | 1000 | 5000 |  | Nc1ccccc1NC(=O)c1ccc(CNc2nc(F)c(F)cc2F)cc1 [Cpd 350]
4 |  | 3000 |  | COc1cc(-c2ccc3sc(NCc4ccc(C(=O)Nc5ccccc5N)cc4)nc3c2)cc(OC)c1OC [Cpd 231]
2 |  | 1000 |  | Nc1ccccc1NC(=O)c1ccc(CNc2nc(Cl)cc(N3CCOCC3)n2)cc1 [Cpd 411, N-(2-Amino-phenyl)-4-[(4-chloro-6-morpholin-4-yl-pyrimidin-2-ylamino)-methyl]-benzamide]
 | 2000 | 3000 |  | COc1cc(CNc2ccc(C(=O)Nc3ccccc3N)cc2)cc(OC)c1OC [Cpd 412, N-(2-Amino-phenyl)-4-(3,4,5trimethoxybenzylamino)-benzamide]
 | 600 | 2000 |  | COc1ccc(CNc2ccc(C(=O)Nc3ccccc3N)cc2)cc1OC [Cpd 434, N-(2-Amino-phenyl)-4-(3,4-dimethoxy-benzylamino)-benzamide]
 | 100 | 2000 |  | COc1ccc(-c2ccnc(NCc3ccc(C(=O)Nc4ccccc4N)cc3)n2)cc1OC [Cpd 440, N-(2-Amino-phenyl)-4-{[4-(3,4-dimethoxy-phenyl)-pyrimidin-2-ylamino]-methyl}-benzamide]
 |  |  | IC50 [1, 10]: 4 µM; EC50 [2, 11]: 5000 nM | Nc1nc(Nc2ccc(C(=O)Nc3ccccc3N)cc2)nc(NC2Cc3ccccc3C2)n1 [Cpd 204]
 | 400 | 1000 |  | COc1ccc(NCc2ccc(C(=O)Nc3ccccc3N)cc2)cc1OC [Cpd 424b]
 |  |  | IC50 (HCT116 cells; HCT-116, 72 h, Table 5c): 5000 nM; EC50 [2, 7]: 10000 nM | Nc1ccccc1NC(=O)/C=C/c1ccc(NCc2ccc(OC(F)(F)F)cc2)nc1 [Cpd 99, N-(2-aminophenyl)-3-[6-(4-trifluoromethoxy-benzylamino)-pyridin-3-yl]-acrylamide]
 | 2000 | 1000 |  | COc1ccc(NCc2ccc(C(=O)Nc3ccccc3N)cc2)cc1 [Cpd 427, N-(2-Amino-phenyl)-4-[(4-methoxy-phenylamino)-methyl]-benzamide]
 |  |  | IC50 (HCT116 cells; HCT-116, Table 5d): 5000 nM; EC50 [2, 9]: 4000 nM | COc1ccc(NCc2ccc(/C=C/C(=O)Nc3ccccc3N)cc2)cc1OC [Cpd 542, N-(2-Amino-phenyl)-3-{4-[(3,4-dimethoxy-phenylamino)-methyl]-phenyl}-acrylamide]
2 |  | 1000 |  | Nc1ccccc1NC(=O)c1ccc(CNc2nc3cc(Cl)ccc3o2)cc1 [Cpd 320, N-(2-Amino-phenyl)-4-[(5-chloro-benzooxazol-2-ylamino)-methyl]-benzamide]
 |  |  | IC50 (HCT116 cells; HCT-116, 72 h, Table 5c): 2000 nM; EC50 [2, 7]: 3000 nM | Nc1ccccc1NC(=O)/C=C/c1ccc(NCc2ccc(F)cc2)nc1 [Cpd 92, N-(2-aminophenyl)-3-[6-(4-fluoro-benzylamino)-pyridin-3-yl]-acrylamide]
